Key:
Type in all cases: cell-based, human
[1] = test system: HOS cells; assay: BrdU proliferation assay, 96 h; details: 25 µM, cells pre-treated with 100 µM thiorphan for 1 h, 96 h
Method: (§1) In the study on the implication of NEP in the anti-proliferative activity of compound 4, cell proliferation was determined with the BrdU assay. Cell cultures were prepared as described above. Depending on the requirements, the HOS and Saos-2 cells were treated with non-cytotoxic concentrations of the NEP inhibitor—thiorphan (1, 5, 20, 100, 200, 500 µM) or pre-treated with thiorphan (100 µM) for 1 h. In this scheme, compound 4 (HOS—25 µM; Saos-2—60 µM) was added alone or in combination with the NEP inhibitor into the cell cultures. Finally, cell proliferation was evaluated with the BrdU Cell Proliferation Assay according to the manufacturer’s instructions (Millipore, Darmstadt, Germany) after a 96-h incubation.
(§2) The results of these assays were calculated as a percent of the untreated cells (100%; control). Then, the IC50 (concentration resulting in 50% inhibition of proliferation) and CC50 (concentration resulting in a 50% decrease in viability) values were calculated from a non-linear regression (log(inhibitor) vs. normalized response-variable slope) using GraphPad Prism 5.0 (GraphPAD Software Inc., San Diego, CA, USA). The IC50 and CC50 results were presented as themean ± SD of at least three experiments. In the case of the BrdU assay, the results were presented as a percent of untreated cells (100%; control).

[2] = test system: Saos-2 cells; assay: BrdU proliferation assay, 96 h; details: Saos-2, 60 µM, cells pre-treated with 100 µM thiorphan for 1 h, 96 h
Method: as §1, §2

[3] = test system: HOS cells; assay: Invasiveness, BME-coated transwell assay; details: 24 h
Method: The invasiveness of the HOS osteosarcoma cells was assessed after treatment with compound 4 at concentrations of 12.5, 25 and 50 µM. The assay was carried out using the Trevigen’sCultureCoat®24-well Cell Invasion Assay (R&D Systems, Minneapolis, […], USA) equipped with a Basement Membrane Extract (BME)-coated membrane (8 µm) of transwell inserts. The assay was performed according to the manufacturer’s instruction and as in the transwell migration assay described above.

For `[BH3-][P+](OC(C)C)(OC(C)C)C(Nc1ccc(Br)cc1)c1ccc([N+](=O)[O-])cc1` (centres unmarked) [Compound 4, [1-(N-p-bromophenylamino)]-1-(p-nitrophenyl)methylphosphonousacid-borane diisopropyl ester], the “effect of thiorphan pretreatment on anti-proliferative properties” value [1] was “partially abolished”, the “effect of thiorphan pretreatment on anti-proliferative properties” value [2] was “partially abolished” and the “decrease in cell invasiveness” value ([3]; 12.5 µM) was “approx. 53%”. The “decrease in cell invasiveness” value ([3]; 25 µM) was about 70% and the “decrease in cell invasiveness” value ([3]; 50 µM) was about 82%.
